Test results reported in paper PMC2248166, “Quantitative peptide binding motifs for 19 human and mouse MHC class I molecules derived using positional scanning combinatorial peptide libraries” (Immunome Research, 2008).
Where a SMILES comes first, the peptide text is derived from it.

What was measured:
Assay in all cases: biochemical
Assay type in all cases: binding
HLA A*3001 = HLA A*3001 (Homo sapiens, UniProt P04439, D140H/D185E/E176W/F33S/G80R/H175R/K168Q/R138E/R41S)
HLA A*3201 = HLA A*3201 (Homo sapiens, UniProt P04439, A270S/D101S/D185E/E176V/E277Q/F133L/G103R/G107R/G231S/H175R/I121M/I218V/I322F/K168Q/L105A/L300P/L318F/M331R/P208A/P217A/Q94H/R106L/R138Q/S129P/T104I/T323A/T345S/V100E/V321M/V358M)
HLA B*1501 = HLA B*1501 (Homo sapiens, UniProt P01889, A329T/A93T/A95T/C349S/D201E/D98Y/E187L/E204Q/E69M/E70A/K202T/N87E/Q94N/R155S/R180W/S121R/S35A/S48A/V306I/V36M/Y140S/Y91S)
HLA B*1503 = HLA B*1503 (Homo sapiens, UniProt P01889, A329T/A93T/A95T/C349S/D201E/D98Y/E187L/E204Q/K202T/N87E/Q94N/R155S/R180L/S121R/S35A/V306I/V36M/Y140S/Y91S)
HLA B*0801 = HLA B*0801 (Homo sapiens, UniProt P01889, A93T/A95T/D138N/E176V/E187T/K202T/Q94N/R180D/S35A/V36M/Y33D/Y91F)

Sequence of HLA A*3001 (P04439 25-365 limits assumed, stated change not applied): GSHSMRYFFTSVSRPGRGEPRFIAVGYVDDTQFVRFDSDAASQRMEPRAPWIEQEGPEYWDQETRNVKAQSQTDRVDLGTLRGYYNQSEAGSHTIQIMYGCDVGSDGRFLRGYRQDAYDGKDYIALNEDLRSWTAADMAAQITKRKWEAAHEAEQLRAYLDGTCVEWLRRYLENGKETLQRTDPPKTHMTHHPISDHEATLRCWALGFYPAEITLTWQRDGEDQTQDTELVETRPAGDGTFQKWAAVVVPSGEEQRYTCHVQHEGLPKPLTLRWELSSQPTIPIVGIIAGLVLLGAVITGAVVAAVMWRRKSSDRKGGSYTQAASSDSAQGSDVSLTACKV

Structure (SMILES) | IC50 (HLA A*3001) [nM] | IC50 (HLA A*3201) [nM] | IC50 (HLA B*1501) [nM] | IC50 (HLA B*1503) [nM] | IC50 (HLA B*0801) [nM]
CC[C@H](C)[C@H](N)C(=O)N[C@H](C(=O)N[C@@H](CC(C)C)C(=O)N[C@H](C(=O)N[C@@H](CC(N)=O)C(=O)N[C@H](C(=O)N[C@H](C(=O)N[C@@H](CC(N)=O)C(=O)N[C@H](C(=O)O)[C@@H](C)CC)C(C)C)C(C)C)[C@@H](C)O)[C@@H](C)O [3102.0320] (H-ITLTNVVNI-OH) | 35 | 77 | 12 | 22 | 
CC[C@H](C)[C@H](NC(=O)[C@H](CCCCN)NC(=O)[C@H](CC(N)=O)NC(=O)[C@H](CO)NC(=O)[C@H](Cc1ccc(O)cc1)NC(=O)[C@H](CCCCN)NC(=O)[C@H](CC(C)C)NC(=O)[C@@H](NC(=O)[C@@H](N)CCCCN)[C@@H](C)O)C(=O)O [3102.0326] (H-KTLKYSNKI-OH) | 38 | 1.9 | 124 |  | 
CC[C@H](C)[C@H](NC(=O)[C@@H](N)CCCCN)C(=O)NCC(=O)N[C@@H](CCSC)C(=O)N[C@@H](Cc1ccccc1)C(=O)N[C@@H](CC(N)=O)C(=O)N[C@@H](CC(C)C)C(=O)N[C@H](C(=O)N[C@@H](Cc1ccccc1)C(=O)O)[C@@H](C)O [3102.0341] (H-KIGMFNLTF-OH) |  | 0.27 | 0.21 | 13 | 
CC[C@H](C)[C@H](NC(=O)[C@H](CC(N)=O)NC(=O)[C@H](Cc1ccccc1)NC(=O)[C@H](CCSC)NC(=O)[C@@H](N)CC(N)=O)C(=O)N[C@@H](CO)C(=O)N[C@@H](Cc1ccccc1)C(=O)N[C@@H](CCCNC(=N)N)C(=O)N[C@@H](Cc1ccccc1)C(=O)O [3102.0348] (H-NMFNISFRF-OH) | 27 | 3.6 | 43 | 19 | 
CC[C@H](C)[C@H](NC(=O)[C@@H]1CCCN1C(=O)[C@@H](NC(=O)[C@H](CO)NC(=O)[C@H](CC(N)=O)NC(=O)[C@H](Cc1ccc(O)cc1)NC(=O)[C@H](CO)NC(=O)[C@H](CCC(N)=O)NC(=O)[C@@H](N)CCSC)C(C)C)C(=O)O [3102.0353] (H-MQSYNSVPI-OH) |  | 2.5 | 1.6 | 0.73 | 
CC[C@H](C)[C@H](N)C(=O)N[C@@H](C)C(=O)N[C@@H](CO)C(=O)N[C@H](C(=O)N[C@@H](CC(C)C)C(=O)N[C@H](C(=O)N[C@H](C(=O)N[C@H](C(=O)N[C@H](C(=O)O)[C@@H](C)CC)[C@@H](C)O)C(C)C)[C@@H](C)CC)[C@@H](C)O [3102.0358] (H-IASTLIVTI-OH) | 10 | 74 | 156 |  | 
CC[C@H](C)[C@H](NC(=O)[C@@H](NC(=O)[C@@H](N)CCCCN)[C@@H](C)O)C(=O)N[C@@H](CC(N)=O)C(=O)N[C@@H](C)C(=O)N[C@@H](CC(C)C)C(=O)N[C@H](C(=O)N[C@@H](Cc1ccc(O)cc1)C(=O)N[C@@H](Cc1ccccc1)C(=O)O)C(C)C [3102.0359] (H-KTINALVYF-OH) |  | 8.7 | 0.37 | 23 | 
CC[C@H](C)[C@H](NC(=O)[C@@H](NC(=O)[C@@H](NC(=O)[C@@H]1CCCN1C(=O)[C@H](CCCNC(=N)N)NC(=O)[C@H](Cc1ccccc1)NC(=O)[C@H](Cc1ccccc1)NC(=O)[C@@H](NC(=O)[C@@H](N)CCCCN)[C@@H](C)CC)[C@@H](C)O)[C@@H](C)O)C(=O)O [3102.0470] (H-KIFFRPTTI-OH) | 17 | 1.1 | 93 |  | 
CC(C)C[C@H](NC(=O)[C@H](CO)NC(=O)[C@H](Cc1ccccc1)NC(=O)[C@@H]1CCCN1C(=O)[C@H](CCCNC(=N)N)NC(=O)[C@H](CCCNC(=N)N)NC(=O)[C@H](CC(C)C)NC(=O)[C@H](CC(C)C)NC(=O)[C@@H](N)CCCCN)C(=O)O [3102.0529] (H-KLLRRPFSL-OH) |  |  |  |  | 0.36
CC(C)C[C@H](NC(=O)[C@H](CCCCN)NC(=O)[C@H](CCCNC(=N)N)NC(=O)[C@@H](N)CCCNC(=N)N)C(=O)N[C@@H](CC(C)C)C(=O)N[C@@H](CCCNC(=N)N)C(=O)N[C@@H](CCCNC(=N)N)C(=O)N1CCC[C@H]1C(=O)N[C@@H](Cc1ccccc1)C(=O)O [3102.0530] (H-RRKLLRRPF-OH) |  |  |  |  | 11
CC[C@H](C)[C@H](NC(=O)[C@@H](NC(=O)[C@H](CC(N)=O)NC(=O)[C@H](CCCCN)NC(=O)[C@H](CCCNC(=N)N)NC(=O)[C@@H](NC(=O)[C@H](Cc1ccccc1)NC(=O)[C@H](CC(C)C)NC(=O)[C@@H](N)Cc1ccc(O)cc1)[C@@H](C)CC)C(C)C)C(=O)O [3102.0531] (H-YLFIRKNVI-OH) |  |  |  |  | 0.71
CC[C@H](C)[C@H](NC(=O)CNC(=O)[C@@H]1CCCN1C(=O)[C@@H](N)CO)C(=O)N[C@@H](CCCNC(=N)N)C(=O)N1CCC[C@H]1C(=O)N[C@@H](CCCNC(=N)N)C(=O)N[C@@H](Cc1ccccc1)C(=O)N[C@@H](CC(C)C)C(=O)O [3102.0532] (H-SPGIRPRFL-OH) |  |  |  |  | 56
CC[C@H](C)[C@H](NC(=O)[C@@H](N)CO)C(=O)N[C@@H](CCCCN)C(=O)N[C@@H](CO)C(=O)N[C@@H](CCCCN)C(=O)N[C@@H](CO)C(=O)N[C@@H](CCCNC(=N)N)C(=O)N[C@@H](CCCNC(=N)N)C(=O)N[C@@H](CC(C)C)C(=O)O [3102.0534] (H-SIKSKSRRL-OH) |  |  |  |  | 30
CC[C@H](C)[C@H](NC(=O)[C@H](CCCCN)NC(=O)[C@@H](NC(=O)[C@H](CCCNC(=N)N)NC(=O)[C@H](CC(C)C)NC(=O)[C@H](CC(N)=O)NC(=O)[C@H](CC(C)C)NC(=O)[C@@H](N)CO)[C@@H](C)CC)C(=O)N[C@@H](CC(C)C)C(=O)O [3102.0536] (H-SLNLRIKIL-OH) |  |  |  |  | 92
CC[C@H](C)[C@H](NC(=O)[C@@H](N)CCC(N)=O)C(=O)N[C@H](C(=O)N[C@@H](C)C(=O)N[C@@H](Cc1ccc(O)cc1)C(=O)N[C@@H](Cc1ccccc1)C(=O)N[C@@H](CO)C(=O)N[C@@H](CCC(=O)O)C(=O)N[C@@H](Cc1ccccc1)C(=O)O)C(C)C [3102.0816] (H-QIVAYFSEF-OH) |  | 70 | 1.4 | 7.9 | 
CC(C)C[C@H](NC(=O)[C@@H](N)C(C)C)C(=O)N[C@@H](Cc1ccccc1)C(=O)N[C@@H](CCC(=O)O)C(=O)N[C@H](C(=O)N[C@@H](Cc1ccccc1)C(=O)N[C@H](C(=O)N[C@H](C(=O)N[C@@H](Cc1ccccc1)C(=O)O)C(C)C)C(C)C)C(C)C [3102.0818] (H-VLFEVFVVF-OH) |  | 7.8 | 2.9 | 4.9 | 
CC(C)C[C@H](NC(=O)[C@H](C)N)C(=O)N[C@@H](CC(C)C)C(=O)N[C@@H](CCC(=O)O)C(=O)N[C@@H](CC(C)C)C(=O)N[C@@H](Cc1ccccc1)C(=O)N[C@@H](CC(N)=O)C(=O)N[C@@H](C)C(=O)N[C@@H](Cc1ccccc1)C(=O)O [3102.0961] (H-ALLELFNAF-OH) |  | 166 | 2.5 | 0.24 | 
CC[C@H](C)[C@H](NC(=O)[C@H](CC(C)C)NC(=O)[C@H](Cc1ccccc1)NC(=O)[C@@H](NC(=O)[C@H](CO)NC(=O)[C@H](Cc1ccc(O)cc1)NC(=O)[C@H](CC(C)C)NC(=O)[C@@H](N)CCCNC(=N)N)[C@@H](C)CC)C(=O)N[C@@H](Cc1ccccc1)C(=O)O [3102.1049] (H-RLYSIFLIF-OH) |  | 6.9 | 3.4 | 0.16 | 
CC(C)C[C@H](N)C(=O)N[C@@H](CO)C(=O)N[C@@H](Cc1ccc(O)cc1)C(=O)N[C@@H](Cc1ccc(O)cc1)C(=O)N[C@H](C(=O)N[C@H](C(=O)N[C@@H](Cc1ccc(O)cc1)C(=O)N[C@H](C(=O)N[C@@H](Cc1ccccc1)C(=O)O)C(C)C)C(C)C)C(C)C [3102.1098] (H-LSYYVVYVF-OH) |  | 280 | 6.4 | 19 | 
CC[C@H](C)[C@H](NC(=O)[C@H](CO)NC(=O)[C@@H](N)CC(C)C)C(=O)N[C@@H](Cc1ccccc1)C(=O)N[C@@H](Cc1ccccc1)C(=O)N[C@@H](Cc1ccc(O)cc1)C(=O)N[C@@H](CO)C(=O)N[C@@H](CO)C(=O)N[C@@H](Cc1ccccc1)C(=O)O [3102.1177] (H-LSIFFYSSF-OH) |  | 129 | 17 | 0.22 | 
CC[C@H](C)[C@H](NC(=O)[C@@H](N)CCCCN)C(=O)N[C@@H](Cc1ccc(O)cc1)C(=O)N[C@@H](CC(N)=O)C(=O)N[C@H](C(=O)N[C@H](C(=O)N[C@@H](CC(N)=O)C(=O)N1CCC[C@H]1C(=O)N[C@@H](Cc1ccccc1)C(=O)O)[C@@H](C)O)C(C)C [3102.1223] (H-KIYNVTNPF-OH) |  | 4.3 | 2.7 | 7.5 | 
CC(C)C[C@H](NC(=O)[C@@H](NC(=O)[C@@H](NC(=O)[C@H](CO)NC(=O)[C@H](CC(N)=O)NC(=O)[C@H](CCC(N)=O)NC(=O)[C@@H](N)CC(C)C)C(C)C)C(C)C)C(=O)N[C@@H](CCC(N)=O)C(=O)N[C@@H](Cc1ccccc1)C(=O)O [3102.1263] (H-LQNSVVLQF-OH) |  | 7.3 | 1.5 | 6.2 | 
CSCC[C@H](NC(=O)[C@@H](N)Cc1c[nH]cn1)C(=O)N[C@@H](C)C(=O)N[C@@H](Cc1ccc(O)cc1)C(=O)N[C@@H](CO)C(=O)N[C@@H](Cc1ccccc1)C(=O)N[C@@H](CCC(N)=O)C(=O)N[C@H](C(=O)N[C@@H](Cc1ccccc1)C(=O)O)[C@@H](C)O [3102.1331] (H-HMAYSFQTF-OH) |  | 16 | 0.25 | 0.28 | 
